US5407911A, “Parathyroid hormone-containing emulsion for nasal administration” (Asahi Kasei Kogyo Kabushiki Kaisha, priority 1991, dated 1995)
Blank lines part the entries; values can stand above or below the compound they belong to.

What was measured:
Assay type in all cases: physicochemical
[1] = Stabilities of the emulsions according to the added concentrations of the azacycloalkane derivative (Referential Experiment 2); conditions: for Observation after 3 days standing / Observation after 7 days standing: room temperature
Method: Each 5 ml of a 1% (W/V) solution preliminarily prepared by dissolving dipotassium glycyrrhizate in distilled water was poured in each of eight 10 ml size test tubes, and thereto was added 1-[2-(decylthio)ethyl] azacyclopentane-2-one selected from the azacycloalkane derivatives so as to make a concentration ranging from 0 to 10%. Then the mixture was agitated for 1 minute using Biomixer (NIHON SEIKI SEISAKUSHO) at 15,000 rpm to prepare each emulsion. The state of dispersion just after the preparation, or after 3 days or 7 days standing at room temperature was observed.

[2] = State of dispersion of emulsions of 1-[2-(decylthio)ethyl]azacyclopentan-2-one made with three emulsifying agents (Referential Experiment 1)
Method: Using 1-[2-(decylthio)ethyl]azacyclopentan-2-one selected from the azacycloalkane derivatives, and three emulsifying agents hereinbelow, emulsifiabilities and stabilities of the emulsions were examined.
(§1) […] The mixutre was agitated under 15,000 rpm for 1 minute by Biomixer (NIHON SEIKI SEISAKUSHO) to prepare each emulsion. The state of dispersion just after the preparation and after 3 days standing at room temperature was observed. The turbidity just after the preparation was measured by absorbance at 650 nm, and used as the index of emulsifiability.

[3] = Turbidity just after preparation (absorbance at 650 nm) as index of emulsifiability (Referential Experiment 1); conditions: for Turbidity (650 nm): just after preparation
Method: as §1

[4] = azacycloalkane 10.0 % in 1% dipotassium glycyrrhizate

Observation just after preparation ([1]; azacycloalkane 0.01 % in 1% dipotassium glycyrrhizate): Colorless clear
Observation after 3 days standing ([1]; azacycloalkane 0.01 %): Colorless clear
Observation after 7 days standing ([1]; azacycloalkane 0.01 %): Colorless clear
Observation just after preparation ([1]; azacycloalkane 0.1 % in 1% dipotassium glycyrrhizate): Colorless clear
Observation after 3 days standing ([1]; azacycloalkane 0.1 %): Colorless clear
Observation after 7 days standing ([1]; azacycloalkane 0.1 %): Colorless clear
Observation just after preparation ([1]; azacycloalkane 0.5 % in 1% dipotassium glycyrrhizate): Colorless clear
Observation after 3 days standing ([1]; azacycloalkane 0.5 %): Colorless clear
Observation after 7 days standing ([1]; azacycloalkane 0.5 %): Colorless clear
Observation just after preparation ([1]; azacycloalkane 1.0 % in 1% dipotassium glycyrrhizate): White clear
Observation after 3 days standing ([1]; azacycloalkane 1.0 %): White clear
Observation after 7 days standing ([1]; azacycloalkane 1.0 %): White clear
Observation just after preparation ([1]; azacycloalkane 2.0 % in 1% dipotassium glycyrrhizate): White clear
Observation after 3 days standing ([1]; azacycloalkane 2.0 %): White clear
Observation after 7 days standing ([1]; azacycloalkane 2.0 %): White clear
Observation just after preparation ([1]; azacycloalkane 5.0 % in 1% dipotassium glycyrrhizate): White emulsified
Observation after 3 days standing ([1]; azacycloalkane 5.0 %): White emulsified
Observation after 7 days standing ([1]; azacycloalkane 5.0 %): White emulsified
Observation just after preparation [1, 4]: White emulsified
Observation after 3 days standing [1, 4]: White emulsified
Observation after 7 days standing [1, 4]: White emulsified
Structure (SMILES): CCCCCCCCCCSCCN1CCCC1=O [1-[2-(decylthio)ethyl]azacyclopentane-2-one]
Emulsification and emulsion stability ([1]; azacycloalkane 0.01% to 10% at 1% dipotassium glycyrrhizate): good emulsification and gave stable emulsion

Just after preparation (state of dispersion) ([2]; emulsifying agent 0.5 %): White clear
Just after preparation (state of dispersion) ([2]; emulsifying agent 1.0 %): White clear
Just after preparation (state of dispersion) ([2]; emulsifying agent 2.0 %): White clear
Just after preparation (state of dispersion) ([2]; emulsifying agent 3.0 %): White clear
Emulsification ([2]; emulsifying agent at 0.1-5 %): good emulsification
Dissolution ([2]; emulsifying agent at 4-5 %): full dissolution
Turbidity (650 nm) ([3]; emulsifying agent 0.1 %): 1.284
Turbidity (650 nm) ([3]; emulsifying agent 0.5 %): 0.459
Turbidity (650 nm) ([3]; emulsifying agent 1.0 %): 0.437
Turbidity (650 nm) ([3]; emulsifying agent 2.0 %): 0.405
Turbidity (650 nm) ([3]; emulsifying agent 3.0 %): 0.346
Turbidity (650 nm) ([3]; emulsifying agent 4.0 %): 0.006
Turbidity (650 nm) ([3]; emulsifying agent 5.0 %): 0.006
Turbidity as index of emulsifiability, compared with HCO-60 and polysorbate 80 ([3]; same concentration level): stronger emulsifiability
Structure (SMILES): CC1(C)[C@@H](O[C@H]2O[C@H](C(=O)[O-])[C@@H](O)[C@H](O)[C@H]2O[C@@H]2O[C@H](C(=O)[O-])[C@@H](O)[C@H](O)[C@H]2O)CC[C@]2(C)[C@H]3C(=O)C=C4[C@@H]5C[C@@](C)(C(=O)O)CC[C@]5(C)CC[C@@]4(C)[C@]3(C)CC[C@@H]12.[K+].[K+] [dipotassium glycyrrhizate]
